Legend:
Assay in all cases: relative viability (nuclei count vs DMSO), 5 days (fraction); higher = more cells survive
NCI-H647 = system: NCI-H647
How it was run: (§1)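 Medians of duplicate plates are given as relative viability. That measure is the nuclei count in treated wells divided by the count in vehicle wells. Counts were taken on 4× images of lung cancer cell lines in 1536-well plates, 5 days after pin-tool dosing the day after seeding with one drug alone or a fixed anchor-drug dose plus five library-drug doses (not always all listed) in √10 steps.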

LCLC-103H = system: LCLC-103H
How it was run: as §1

NCI-H661 = system: NCI-H661
How it was run: as §1

NCI-H1651 = system: NCI-H1651
How it was run: as §1

EMC-BAC-2 = system: EMC-BAC-2
How it was run: as §1

NCI-H1734 = system: NCI-H1734
How it was run: as §1

HCC-78 = system: HCC-78
How it was run: as §1

201T = system: 201T
How it was run: as §1

EPLC-272H = system: EPLC-272H
How it was run: as §1

LOU-NH91 = system: LOU-NH91
How it was run: as §1

NCI-H23 = system: NCI-H23
How it was run: as §1

SK-LU-1 = system: SK-LU-1
How it was run: as §1

NCI-H1437 = system: NCI-H1437
How it was run: as §1

NCI-H2023 = system: NCI-H2023
How it was run: as §1

ABC-1 = system: ABC-1
How it was run: as §1

NCI-H2405 = system: NCI-H2405
How it was run: as §1

NCI-H1395 = system: NCI-H1395
How it was run: as §1

NCI-H1975 = system: NCI-H1975
How it was run: as §1

NCI-H1793 = system: NCI-H1793
How it was run: as §1

NCI-H1915 = system: NCI-H1915
How it was run: as §1

RERF-LC-KJ = system: RERF-LC-KJ
How it was run: as §1

UMC-11 = system: UMC-11
How it was run: as §1

NCI-H1792 = system: NCI-H1792
How it was run: as §1

SMILES: Cc1cnc(-c2cnc(NCCNc3ccc(C#N)cn3)nc2-c2ccc(Cl)cc2Cl)[nH]1 + CS(=O)(=O)N1CCN(Cc2cc3nc(-c4cccc5[nH]ncc45)nc(N4CCOCC4)c3s2)CC1 [Pictilisib] (partner 1 µM)
- relative viability (NCI-H647; first compound 0.08 µM): 0.451
- relative viability (NCI-H647; first compound 0.253 µM): 0.45
- relative viability (NCI-H647; first compound 0.8 µM): 0.366
- relative viability (NCI-H647; first compound 2.53 µM): 0.458
- relative viability (LCLC-103H; first compound 0.08 µM): 0.675
- relative viability (LCLC-103H; first compound 0.253 µM): 0.542
- relative viability (LCLC-103H; first compound 0.8 µM): 0.696
- relative viability (LCLC-103H; first compound 2.53 µM): 0.619
- relative viability (NCI-H661; first compound 0.08 µM): 0.476
- relative viability (NCI-H661; first compound 0.253 µM): 0.395
- relative viability (NCI-H661; first compound 0.8 µM): 0.476
- relative viability (NCI-H661; first compound 2.53 µM): 0.393
- relative viability (NCI-H1651; first compound 0.08 µM): 0.67
- relative viability (NCI-H1651; first compound 0.253 µM): 0.485
- relative viability (NCI-H1651; first compound 0.8 µM): 0.524
- relative viability (NCI-H1651; first compound 2.53 µM): 0.686
- relative viability (EMC-BAC-2; first compound 0.08 µM): 0.579
- relative viability (EMC-BAC-2; first compound 0.253 µM): 0.525
- relative viability (EMC-BAC-2; first compound 0.8 µM): 0.515
- relative viability (EMC-BAC-2; first compound 2.53 µM): 0.567
- relative viability (NCI-H1734; first compound 0.08 µM): 0.548
- relative viability (NCI-H1734; first compound 0.253 µM): 0.43
- relative viability (NCI-H1734; first compound 0.8 µM): 0.432
- relative viability (NCI-H1734; first compound 2.53 µM): 0.522
- relative viability (HCC-78; first compound 0.08 µM): 0.198
- relative viability (HCC-78; first compound 0.253 µM): 0.253
- relative viability (HCC-78; first compound 0.8 µM): 0.233
- relative viability (HCC-78; first compound 2.53 µM): 0.308
- relative viability (201T; first compound 0.08 µM): 0.713
- relative viability (201T; first compound 0.253 µM): 0.629
- relative viability (201T; first compound 0.8 µM): 0.724
- relative viability (201T; first compound 2.53 µM): 0.723
- relative viability (EPLC-272H; first compound 0.08 µM): 0.337
- relative viability (EPLC-272H; first compound 0.253 µM): 0.325
- relative viability (EPLC-272H; first compound 0.8 µM): 0.316
- relative viability (EPLC-272H; first compound 2.53 µM): 0.358
- relative viability (LOU-NH91; first compound 0.08 µM): 0.532
- relative viability (LOU-NH91; first compound 0.253 µM): 0.531
- relative viability (LOU-NH91; first compound 0.8 µM): 0.504
- relative viability (LOU-NH91; first compound 2.53 µM): 0.564
- relative viability (NCI-H23; first compound 0.08 µM): 0.511
- relative viability (NCI-H23; first compound 0.253 µM): 0.56
- relative viability (NCI-H23; first compound 0.8 µM): 0.535
- relative viability (NCI-H23; first compound 2.53 µM): 0.613
- relative viability (SK-LU-1; first compound 0.08 µM): 0.701
- relative viability (SK-LU-1; first compound 0.253 µM): 0.604
- relative viability (SK-LU-1; first compound 0.8 µM): 0.623
- relative viability (SK-LU-1; first compound 2.53 µM): 0.754
- relative viability (NCI-H1437; first compound 0.08 µM): 0.521
- relative viability (NCI-H1437; first compound 0.253 µM): 0.399
- relative viability (NCI-H1437; first compound 0.8 µM): 0.483
- relative viability (NCI-H1437; first compound 2.53 µM): 0.379
- relative viability (NCI-H2023; first compound 0.08 µM): 0.334
- relative viability (NCI-H2023; first compound 0.253 µM): 0.271
- relative viability (NCI-H2023; first compound 0.8 µM): 0.307
- relative viability (NCI-H2023; first compound 2.53 µM): 0.813
- relative viability (ABC-1; first compound 0.08 µM): 1
- relative viability (ABC-1; first compound 0.253 µM): 0.584
- relative viability (ABC-1; first compound 0.8 µM): 0.75
- relative viability (ABC-1; first compound 2.53 µM): 0.744
- relative viability (NCI-H2405; first compound 0.08 µM): 0.472
- relative viability (NCI-H2405; first compound 0.253 µM): 0.485
- relative viability (NCI-H2405; first compound 0.8 µM): 0.422
- relative viability (NCI-H2405; first compound 2.53 µM): 0.412
- relative viability (NCI-H1395; first compound 0.08 µM): 0.759
- relative viability (NCI-H1395; first compound 0.253 µM): 0.585
- relative viability (NCI-H1395; first compound 0.8 µM): 0.601
- relative viability (NCI-H1395; first compound 2.53 µM): 0.65
- relative viability (NCI-H1975; first compound 0.08 µM): 0.328
- relative viability (NCI-H1975; first compound 0.253 µM): 0.297
- relative viability (NCI-H1975; first compound 0.8 µM): 0.299
- relative viability (NCI-H1975; first compound 2.53 µM): 0.338
- relative viability (NCI-H1793; first compound 0.08 µM): 0.315
- relative viability (NCI-H1793; first compound 0.253 µM): 0.351
- relative viability (NCI-H1793; first compound 0.8 µM): 0.412
- relative viability (NCI-H1793; first compound 2.53 µM): 0.596
- relative viability (NCI-H1915; first compound 0.08 µM): 0.958
- relative viability (NCI-H1915; first compound 0.8 µM): 0.939
- relative viability (NCI-H1915; first compound 2.53 µM): 1.01
- relative viability (RERF-LC-KJ; first compound 0.08 µM): 0.662
- relative viability (RERF-LC-KJ; first compound 0.253 µM): 0.496
- relative viability (RERF-LC-KJ; first compound 0.8 µM): 0.497
- relative viability (RERF-LC-KJ; first compound 2.53 µM): 0.548
- relative viability (UMC-11; first compound 0.08 µM): 0.871
- relative viability (UMC-11; first compound 0.253 µM): 0.777
- relative viability (UMC-11; first compound 0.8 µM): 0.496
- relative viability (UMC-11; first compound 2.53 µM): 0.859
- relative viability (NCI-H1792; first compound 0.08 µM): 0.34
- relative viability (NCI-H1792; first compound 0.253 µM): 0.268
- relative viability (NCI-H1792; first compound 0.8 µM): 0.25
- relative viability (NCI-H1792; first compound 2.53 µM): 0.385

Reference: the supplement of paper PMC10307832
